For orientation: IC50 means the concentration needed to halve the response being measured.

The structures appear in SMILES notation. Structures can show the parent of a compound that is named as a salt.

From patent US10246453B2, “Benzenesulfonamide compounds and their use as therapeutic agents” (Xenon Pharmaceuticals Inc., priority 2016, dated 2019) come the findings set out here.

Data set [1] addresses T1, NaV1.6 (Homo sapiens (Human), UniProt Q9UQD0). As to the kind of experiment: Sodium Influx Assay (Flux), NaV1.6. The settings on record: read-out: Flux NaV1.6 IC50; Trex HEK293 cells, ANG2 dye; arithmetic mean.
Data set [2] has as its target T2, NaV1.1 (Homo sapiens (Human), UniProt P35498). As to the kind of experiment: Electrophysiological Assay (EP), patch voltage clamp, NaV1.1. It is filed as cell-based. The conditions noted are these: HEK-293 cells, whole-cell patch clamp, inactivated state; arithmetic mean. On the procedure: (§1) Sodium currents were measured using the patch clamp technique in the whole-cell configuration using either a PatchXpress automated voltage clamp or manually using an Axopatch 200B (Axon Instruments) or Model 2400 (A-M systems) amplifier.
In some studies, the external sodium was reduced by equimolar replacement with choline. […] All recordings were performed at ambient temperature in a bath chamber with a volume of 150 μL. Control sodium currents were measured in 0.5% DMSO. Controls and representative compounds of the invention were applied to the recording chamber through a 4-pinch or 8-pinch valve bath perfusion system manufactured by ALA Scientific Instruments.
Series resistance compensation was applied (60-80%). […] All statistics in this study are given as mean±SD.
The membrane potential was maintained at a voltage where inactivation of the channel is complete. The voltage is then stepped back to a very negative (Vhold=−150 mV) voltage for 20 ms and then a test pulse is applied to quantify the compound block. […] The percent decrease in sodium current following wash-on of compound was taken as the percent block of sodium channels.
For orientation: Patch clamp records ionic current or voltage across a cell membrane.

In data set [3] the target is T1, NaV1.6. In words: Electrophysiological Assay (EP), patch voltage clamp, NaV1.6. It is filed as cell-based. The conditions noted are these: HEK-293 cells, whole-cell patch clamp, inactivated state; arithmetic mean.
Description: Patch voltage clamp electrophysiology allows for the direct measurement and quantification of block of voltage-gated sodium channels (Nay's), and allows the determination of the time-and voltage-dependence of block which has been interpreted as differential binding to the resting, open, and inactivated states of the sodium channel (Hille, B., Journal of General Physiology (1977), 69: 497-515).
NaV1.1, NaV1.5 and NaV1.6 cDNAs (NM_001165964 (SCN1A), NM_000335 (SCN5A) and NM_014191 (SCN8A), respectively) were stably expressed in HEK-293 cells.
as §1
The manual voltage clamp protocol was as follows: Borosilicate glass micropipettes were fire-polished to a tip diameter yielding a resistance of 2-4 Mohms in the working solutions. […] In some studies, the external sodium was reduced by equimolar replacement with choline. Osmolarity in the CsF internal and NaCl external solutions was adjusted to 300 mOsm/kg and 310 mOsm/kg with glucose, respectively. All recordings were performed at ambient temperature in a bath chamber with a volume of 150 μL. Control sodium currents were measured in 0.5% DMSO. Controls and representative compounds of the invention were applied to the recording chamber through a 4-pinch or 8-pinch valve bath perfusion system manufactured by ALA Scientific Instruments.
Currents were recorded at 40 kHz sampling frequency, filtered at […], and stored using a Digidata-1322A analogue/digital interface with the pClamp software (Axon Instruments). Series resistance compensation was applied (60-80%). […] All statistics in this study are given as mean±SD.
The membrane potential was maintained at a voltage where inactivation of the channel is complete. The voltage is then stepped back to a very negative (Vhold=−150 mV) voltage for 20 ms and then a test pulse is applied to quantify the compound block. The 20 ms brief repolarization was long enough for compound-free channels to completely recover from fast inactivation, but the compound-bound channels recovered more slowly such that negligible recovery could occur during this interval. The percent decrease in sodium current following wash-on of compound was taken as the percent block of sodium channels.

The target of data set [4] is T2, NaV1.1. In words: Sodium Influx Assay (Flux), NaV1.1. It is filed as cell-based. The conditions noted are these: Trex HEK293 cells, ANG2 dye; arithmetic mean.
Data set [5] has as its target NaV1.5 (Homo sapiens (Human), UniProt Q14524). As to the kind of experiment: Sodium Influx Assay (Flux), NaV1.5. The conditions noted are these: read-out: Flux NaV1.5 IC50; Trex HEK293 cells, ANG2 dye; arithmetic mean.

NaV1.5, sequence (Q14524 other isoform, or with tags, fused parts or gaps): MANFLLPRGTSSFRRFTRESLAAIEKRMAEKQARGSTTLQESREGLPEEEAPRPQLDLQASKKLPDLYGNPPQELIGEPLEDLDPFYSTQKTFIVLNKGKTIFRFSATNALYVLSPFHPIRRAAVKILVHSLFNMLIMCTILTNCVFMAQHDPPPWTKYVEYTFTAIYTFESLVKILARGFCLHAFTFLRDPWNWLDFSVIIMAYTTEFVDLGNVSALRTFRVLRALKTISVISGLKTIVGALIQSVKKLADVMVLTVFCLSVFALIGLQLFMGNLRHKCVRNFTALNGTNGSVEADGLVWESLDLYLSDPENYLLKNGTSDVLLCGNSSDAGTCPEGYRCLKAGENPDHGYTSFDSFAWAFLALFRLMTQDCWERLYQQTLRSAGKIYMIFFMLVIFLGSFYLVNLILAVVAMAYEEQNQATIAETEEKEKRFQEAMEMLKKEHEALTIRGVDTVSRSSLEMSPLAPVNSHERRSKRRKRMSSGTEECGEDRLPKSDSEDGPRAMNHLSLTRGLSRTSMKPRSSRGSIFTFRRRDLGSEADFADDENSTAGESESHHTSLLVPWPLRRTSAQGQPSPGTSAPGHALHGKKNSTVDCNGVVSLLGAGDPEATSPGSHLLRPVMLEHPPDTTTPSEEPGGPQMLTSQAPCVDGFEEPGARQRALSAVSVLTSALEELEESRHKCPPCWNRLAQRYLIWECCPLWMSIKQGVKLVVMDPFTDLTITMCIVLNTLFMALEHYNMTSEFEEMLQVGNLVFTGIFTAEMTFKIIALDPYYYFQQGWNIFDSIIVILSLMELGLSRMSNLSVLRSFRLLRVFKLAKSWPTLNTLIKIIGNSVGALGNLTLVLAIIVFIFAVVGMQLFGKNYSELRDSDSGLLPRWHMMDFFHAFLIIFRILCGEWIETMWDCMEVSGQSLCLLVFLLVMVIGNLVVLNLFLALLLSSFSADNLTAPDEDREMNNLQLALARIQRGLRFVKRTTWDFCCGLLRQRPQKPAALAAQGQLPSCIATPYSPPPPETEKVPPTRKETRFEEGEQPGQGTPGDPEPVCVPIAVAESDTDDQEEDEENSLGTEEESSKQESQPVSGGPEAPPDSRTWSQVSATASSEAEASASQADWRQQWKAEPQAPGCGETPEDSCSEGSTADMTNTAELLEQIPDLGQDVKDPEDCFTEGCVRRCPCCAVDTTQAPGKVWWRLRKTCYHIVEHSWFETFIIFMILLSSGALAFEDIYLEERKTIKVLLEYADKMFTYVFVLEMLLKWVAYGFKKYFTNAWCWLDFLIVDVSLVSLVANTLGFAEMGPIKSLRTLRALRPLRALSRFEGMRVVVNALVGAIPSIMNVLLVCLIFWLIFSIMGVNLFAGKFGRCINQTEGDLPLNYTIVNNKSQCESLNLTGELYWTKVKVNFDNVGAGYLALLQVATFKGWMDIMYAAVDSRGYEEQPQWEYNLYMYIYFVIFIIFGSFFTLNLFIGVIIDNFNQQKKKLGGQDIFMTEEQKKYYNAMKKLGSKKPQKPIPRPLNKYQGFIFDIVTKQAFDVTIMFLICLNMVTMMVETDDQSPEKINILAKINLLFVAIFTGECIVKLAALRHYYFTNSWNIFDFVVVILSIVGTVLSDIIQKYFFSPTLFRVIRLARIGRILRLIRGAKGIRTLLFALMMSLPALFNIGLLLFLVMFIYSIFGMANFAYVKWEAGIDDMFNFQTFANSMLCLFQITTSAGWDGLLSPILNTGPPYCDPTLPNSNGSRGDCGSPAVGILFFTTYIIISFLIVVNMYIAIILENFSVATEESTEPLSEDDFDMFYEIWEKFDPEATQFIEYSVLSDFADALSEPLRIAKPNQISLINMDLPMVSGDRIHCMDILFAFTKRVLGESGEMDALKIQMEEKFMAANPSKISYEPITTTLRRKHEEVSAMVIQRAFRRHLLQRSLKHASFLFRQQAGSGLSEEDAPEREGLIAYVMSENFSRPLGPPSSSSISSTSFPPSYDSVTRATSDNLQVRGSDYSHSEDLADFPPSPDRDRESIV
T1 sequence (Q9UQD0 whole entry): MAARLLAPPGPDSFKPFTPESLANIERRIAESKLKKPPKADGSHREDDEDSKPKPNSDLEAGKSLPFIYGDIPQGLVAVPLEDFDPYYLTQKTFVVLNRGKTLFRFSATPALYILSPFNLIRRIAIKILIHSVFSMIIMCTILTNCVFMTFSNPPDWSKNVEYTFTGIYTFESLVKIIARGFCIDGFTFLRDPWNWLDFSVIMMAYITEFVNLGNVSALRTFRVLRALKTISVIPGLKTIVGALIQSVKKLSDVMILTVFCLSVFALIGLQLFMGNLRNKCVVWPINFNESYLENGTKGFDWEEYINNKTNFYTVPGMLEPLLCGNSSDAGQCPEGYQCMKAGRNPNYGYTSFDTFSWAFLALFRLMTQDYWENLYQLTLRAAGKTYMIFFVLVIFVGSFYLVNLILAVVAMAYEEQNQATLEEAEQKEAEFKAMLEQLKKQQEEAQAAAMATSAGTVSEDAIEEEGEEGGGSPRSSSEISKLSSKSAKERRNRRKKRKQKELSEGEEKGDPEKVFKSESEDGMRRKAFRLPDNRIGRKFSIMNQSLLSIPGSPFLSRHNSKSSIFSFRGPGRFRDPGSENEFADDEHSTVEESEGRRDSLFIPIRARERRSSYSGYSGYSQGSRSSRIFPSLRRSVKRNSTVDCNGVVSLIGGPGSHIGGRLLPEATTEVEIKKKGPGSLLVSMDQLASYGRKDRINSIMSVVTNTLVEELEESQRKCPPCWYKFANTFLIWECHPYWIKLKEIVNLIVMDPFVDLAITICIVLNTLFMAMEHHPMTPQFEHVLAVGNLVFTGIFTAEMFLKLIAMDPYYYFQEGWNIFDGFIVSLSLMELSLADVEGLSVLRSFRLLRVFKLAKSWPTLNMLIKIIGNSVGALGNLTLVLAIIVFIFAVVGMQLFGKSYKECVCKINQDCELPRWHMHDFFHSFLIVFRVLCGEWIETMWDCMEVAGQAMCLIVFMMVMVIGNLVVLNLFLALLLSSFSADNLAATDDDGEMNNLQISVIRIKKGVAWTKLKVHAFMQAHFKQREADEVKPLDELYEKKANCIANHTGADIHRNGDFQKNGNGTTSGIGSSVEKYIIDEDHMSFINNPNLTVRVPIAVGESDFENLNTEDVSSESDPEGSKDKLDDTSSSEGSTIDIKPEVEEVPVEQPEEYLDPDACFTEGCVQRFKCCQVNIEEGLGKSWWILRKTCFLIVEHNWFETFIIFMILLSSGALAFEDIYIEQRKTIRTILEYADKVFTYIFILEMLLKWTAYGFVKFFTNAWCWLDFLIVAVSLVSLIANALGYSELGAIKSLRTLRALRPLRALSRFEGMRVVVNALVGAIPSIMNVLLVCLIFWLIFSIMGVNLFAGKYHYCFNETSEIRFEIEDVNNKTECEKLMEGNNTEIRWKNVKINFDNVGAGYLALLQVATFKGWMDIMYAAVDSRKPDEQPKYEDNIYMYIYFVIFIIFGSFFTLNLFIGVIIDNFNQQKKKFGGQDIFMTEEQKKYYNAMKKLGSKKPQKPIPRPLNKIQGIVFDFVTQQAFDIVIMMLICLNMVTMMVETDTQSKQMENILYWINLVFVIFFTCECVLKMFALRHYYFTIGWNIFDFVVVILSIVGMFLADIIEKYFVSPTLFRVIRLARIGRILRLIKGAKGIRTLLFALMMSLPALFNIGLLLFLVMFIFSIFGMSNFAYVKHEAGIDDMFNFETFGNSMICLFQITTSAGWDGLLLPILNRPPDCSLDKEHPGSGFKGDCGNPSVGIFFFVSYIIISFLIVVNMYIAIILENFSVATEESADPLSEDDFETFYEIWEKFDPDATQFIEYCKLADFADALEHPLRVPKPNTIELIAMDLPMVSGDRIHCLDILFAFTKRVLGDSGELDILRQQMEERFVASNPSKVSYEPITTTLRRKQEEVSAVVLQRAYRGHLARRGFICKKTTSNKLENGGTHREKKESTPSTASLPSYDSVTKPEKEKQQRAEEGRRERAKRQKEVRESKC

On to `CN(c1cc(F)c(S(=O)(=O)Nc2cccc(F)n2)cc1Cl)[C@H]1CCN(Cc2ccccc2)C1` [Example 40, (S)-4-((1-benzylpyrrolidin-3-yl)(methyl)amino)-5-chloro-2-fluoro-N-(6-fluoropyridin-2-yl)benzenesulfonamide bis(trifluoroacetic acid) salt], for which the concentration for half-maximal inhibition (IC50) was 3.25 µM in data set [1]; above 10 µM in data set [2]; 3.88 µM in data set [3]; 6.79 µM in data set [4]; 15.8 µM in data set [5].

Turning to `Cc1c(N(C)[C@H]2CCN(Cc3ccccc3)C2)cc(F)c(S(=O)(=O)Nc2ccsn2)c1F` [Example 279, (S)-4-((1-benzylpyrrolidin-3-yl)(methyl)amino)-2,6-difluoro-N-(isothiazol-3-yl)-3-methylbenzenesulfonamide 2,2,2-trifluoroacetate], the 50% inhibitory concentration (IC50) in data set [1] was 0.064 µM; in data set [2], above 10 µM; in data set [3], 0.011 µM; in data set [4], 21.2 µM; in data set [5] it was above 30 µM.

As to `Cc1c(O[C@H]2CCN(Cc3ccccc3)C2)cc(F)c(S(=O)(=O)Nc2cscn2)c1F` [Example 269, (S)-4-((1-benzylpyrrolidin-3-yl)oxy)-2,6-difluoro-3-methyl-N-(thiazol-4-yl)benzenesulfonamide hydrochloride], the IC50 in data set [1] was 0.647 µM; in data set [2] it was above 10 µM; in data set [3] it was 0.329 µM; in data set [4] it was above 30 µM; in data set [5], above 30 µM.

For `CN(c1ccc(S(=O)(=O)Nc2ncns2)cc1Cl)[C@H]1CCN(Cc2cccc(C(F)F)c2)C1` [Example 31, (S)-3-chloro-4-((1-(3-(difluoromethyl)benzyl)pyrrolidin-3-yl)(methyl)amino)-N-(1,2,4-thiadiazol-5-yl)benzenesulfonamide], the IC50 is 0.013 µM in data set [1], 0.029 µM in data set [3], 27.7 µM in data set [4] and above 30 µM in data set [5].

On to `O=S(=O)(Nc1ncns1)c1ccc(NC2CCN(Cc3ccccc3)CC2)c(Cl)c1` [Example 46, 4-((1-benzylpiperidin-4-yl)amino)-3-chloro-N-(1,2,4-thiadiazol-5-yl)benzenesulfonamide 2,2,2-trifluoroacetate], for which the IC50 was 0.731 µM in data set [1], 0.278 µM in data set [3], 4.13 µM in data set [4] and above 30 µM in data set [5].

In the case of `O=S(=O)(Nc1ncns1)c1ccc(O[C@H]2CCN(Cc3ccccc3)C2)c(Cl)c1` [Example 97, (S)-4-(1-benzylpyrrolidin-3-yloxy)-3-chloro-N-(1,2,4-thiadiazol-5-yl)benzenesulfonamide 2,2,2-trifluoroacetate], the IC50 in data set [1] was 1.45 µM; in data set [3], 2.94 µM; in data set [4], above 30 µM; in data set [5] it was above 30 µM.

For the compound `O=S(=O)(Nc1cccc(F)n1)c1ccc(OC2CCN(Cc3ccccc3)CC2)c(Cl)c1` [Example 77, 4-((1-benzylpiperidin-4-yl)oxy)-3-chloro-N-(6-fluoropyridin-2-yl)benzenesulfonamide 2,2,2-trifluoroacetate], the IC50 in data set [1] is 7.61 µM; in data set [3], 5.57 µM; in data set [4], 19 µM; in data set [5], 26.6 µM.

`O=S(=O)(Nc1ncns1)c1ccc(NC2CCN(Cc3ccccc3)C2)c(Cl)c1` (centres unmarked) [Example 26, 4-((1-benzylpyrrolidin-3-yl)amino)-3-chloro-N-(1,2,4-thiadiazol-5-yl)benzenesulfonamide trifluoroacetate]: the IC50 in data set [1] was 0.235 µM; in data set [3] it was 0.164 µM; in data set [4] it was 15 µM; in data set [5] it was above 30 µM.

`O=S(=O)(Nc1ncns1)c1ccc(N[C@H]2CCN(Cc3ccccc3)C2)c(Cl)c1` [Example 67, (S)-4-((1-benzylpyrrolidin-3-yl)amino)-3-chloro-N-(1,2,4-thiadiazol-5-yl)benzenesulfonamide 2,2,2-trifluoroacetate]: the IC50 was 0.31 µM in data set [1], 0.453 µM in data set [3], above 30 µM in data set [4] and above 30 µM in data set [5].

In the case of `Cc1c(N(C)[C@H]2CCN(Cc3ccccc3)C2)cc(F)c(S(=O)(=O)Nc2ncns2)c1F` [Example 295, (S)-4-((1-benzylpyrrolidin-3-yl)(methyl)amino)-2,6-difluoro-3-methyl-N-(1,2,4-thiadiazol-5-yl)benzenesulfonamide], the IC50 in data set [1] was found to be 0.009 µM; in data set [3], 0.001 µM; in data set [4], 17.1 µM; in data set [5] it was 25.9 µM.

For `Cc1c(OC2CCN([C@H](C)c3ccccc3)CC2)cc(F)c(S(=O)(=O)Nc2cscn2)c1F` [Example 282, (R)-2,6-difluoro-3-methyl-4-((1-(1-phenylethyl)piperidin-4-yl)oxy)-N-(thiazol-4-yl)benzenesulfonamide 2,2,2-trifluoroacetate], the IC50 in data set [1] was determined as 0.005 µM; in data set [3] it was 0.005 µM; in data set [4], 17.3 µM; in data set [5] it was 23.9 µM.

Regarding `C[C@H](c1ccccc1)N1CCC(Oc2cc(F)c(S(=O)(=O)Nc3cscn3)c(F)c2)CC1` [Example 291, (R)-2,6-difluoro-4-((1-(1-phenylethyl)piperidin-4-yl)oxy)-N-(thiazol-4-yl)benzenesulfonamide 2,2,2-trifluoroacetate], the IC50 in data set [1] is 0.578 µM; in data set [3], 0.447 µM; in data set [4] it was above 30 µM; in data set [5] it was above 30 µM.

`Cc1cccc(CN2CC[C@H](N(C)c3cc(F)c(S(=O)(=O)Nc4cscn4)c(F)c3Cl)C2)n1` [Example 267, (S)-3-chloro-2,6-difluoro-4-(methyl(1-((6-methylpyridin-2-yl)methyl)pyrrolidin-3-yl)amino)-N-(thiazol-4-yl)benzenesulfonamide]: the IC50 in data set [1] was 0.182 µM; in data set [3] it was 0.066 µM; in data set [4], above 30 µM; in data set [5], above 30 µM.

Regarding `Cc1cc(C)cc(CN2CC[C@H](Oc3ccc(S(=O)(=O)Nc4ncns4)cc3Cl)C2)c1` [Example 99, (S)-3-chloro-4-(1-(3,5-dimethylbenzyl)pyrrolidin-3-yloxy)-N-(1,2,4-thiadiazol-5-yl)benzenesulfonamide 2,2,2-trifluoroacetate], the 50% inhibitory concentration (IC50) in data set [1] was 1.41 µM; in data set [3], 4.44 µM; in data set [4], above 30 µM; in data set [5], above 30 µM.

As for `Cc1cc(S(=O)(=O)Nc2ccsn2)c(F)cc1N(C)[C@H]1CCN(Cc2ccccc2)C1` [Example 277, (S)-4-((1-benzylpyrrolidin-3-yl)(methyl)amino)-2-fluoro-N-(isothiazol-3-yl)-5-methylbenzenesulfonamide 2,2,2-trifluoroacetate], the IC50 in data set [1] was 0.153 µM; in data set [3], 0.027 µM; in data set [4] it was 24.9 µM; in data set [5], above 30 µM.

In the case of `O=S(=O)(Nc1ncns1)c1ccc(N[C@@H]2CCN(Cc3ccccc3)C2)c(Cl)c1` [Example 66, (R)-4-((1-benzylpyrrolidin-3-yl)amino)-3-chloro-N-(1,2,4-thiadiazol-5-yl)benzenesulfonamide 2,2,2-trifluoroacetate], the IC50 in data set [1] was 0.148 µM; in data set [3] it was 0.144 µM; in data set [4], 5.51 µM; in data set [5], above 30 µM.

On to `O=S(=O)(Nc1nccs1)c1cc(Cl)c(OC2CCN(Cc3ccccc3)CC2)cc1F` [Example 47, 4-((1-benzylpiperidin-4-yl)oxy)-5-chloro-2-fluoro-N-(thiazol-2-yl)benzenesulfonamide 2,2,2-trifluoroacetate], for which the IC50 in data set [1] was 0.943 µM; in data set [3] it was 0.479 µM; in data set [4], 12.3 µM; in data set [5], 15.9 µM.
